Reference: ChEMBL document CHEMBL3044552, “Synthesis and biological evaluation of 1-(3-chloro-2-oxo-4-phenylazetidin-1-yl)-3-(2-oxo-2-(10H-phenothiazin-10-yl)ethyl)urea derivatives” (Med Chem Res, 2013)
Values after ≈ are worked out from the molar mass of the structure shown. Active and inactive are the calls of the source. No cut-off for these calls is given here.

What was measured:
Aspergillus niger [1] = test: Antifungal activity against Aspergillus niger after 24 hr by disc diffusion method; type: functional
HeLa [2] = test: Growth inhibition of Homo sapiens (human) HeLa cells at 25 uM after 48 hr by MTT assay; type: functional; settings: read-out: GI
Escherichia coli [3] = test: Antibacterial activity against Escherichia coli after 18 hr by serial dilution method; type: functional
HeLa [4] = test: Growth inhibition of Homo sapiens (human) HeLa cells at 12.5 uM after 48 hr by MTT assay; type: functional; settings: read-out: GI
Pseudomonas aeruginosa [5] = test: Antibacterial activity against Pseudomonas aeruginosa after 24 hr by disc diffusion method; type: functional
Monascus purpureus [6] = test: Antifungal activity against Monascus purpureus after 18 hr by serial dilution method; type: functional
Trichophyton rubrum [7] = test: Antifungal activity against Trichophyton rubrum after 18 hr by serial dilution method; type: functional
Bacillus subtilis [8] = test: Antibacterial activity against Bacillus subtilis after 24 hr by disk diffusion method; type: functional
HeLa [9] = test: Cytotoxicity against Homo sapiens (human) HeLa cells after 48 hr by MTT assay; type: functional, cell-based
Micrococcus luteus [10] = test: Antibacterial activity against Micrococcus luteus after 24 hr by disk diffusion method; type: functional
Escherichia coli [11] = test: Antibacterial activity against Escherichia coli after 24 hr by disc diffusion method; type: functional
Vibrio cholerae [12] = test: Antibacterial activity against Vibrio cholerae after 24 hr by disk diffusion method; type: functional
HeLa [13] = test: Growth inhibition of Homo sapiens (human) HeLa cells at 50 uM after 48 hr by MTT assay; type: functional; settings: read-out: GI
Monascus purpureus [14] = test: Antifungal activity against Monascus purpureus after 24 hr by disk diffusion method; type: functional
Trichophyton rubrum [15] = test: Antifungal activity against Trichophyton rubrum after 24 hr by disk diffusion method; type: functional
Candida albicans [16] = test: Antifungal activity against Candida albicans after 18 hr by serial dilution method; type: functional
[17] = test system: Staphylococcus epidermidis; test: Antibacterial activity against Staphylococcus albus after 24 hr by disk diffusion method; type: functional
Pseudomonas aeruginosa [18] = test: Antibacterial activity against Pseudomonas aeruginosa after 18 hr by serial dilution method; type: functional
HeLa [19] = test: Growth inhibition of Homo sapiens (human) HeLa cells at 6.25 uM after 48 hr by MTT assay; type: functional; settings: read-out: GI
Staphylococcus aureus [20] = test: Antibacterial activity against Staphylococcus aureus after 18 hr by serial dilution method; type: functional
Micrococcus luteus [21] = test: Antibacterial activity against Micrococcus luteus after 18 hr by serial dilution method; type: functional
Bacillus subtilis [22] = test: Antibacterial activity against Bacillus subtilis after 18 hr by serial dilution method; type: functional
Aspergillus niger [23] = test: Antifungal activity against Aspergillus niger after 18 hr by serial dilution method; type: functional
Vibrio cholerae [24] = test: Antibacterial activity against Vibrio cholerae after 18 hr by serial dilution method; type: functional
HeLa [25] = test: Growth inhibition of Homo sapiens (human) HeLa cells at 100 uM after 48 hr by MTT assay; type: functional; settings: read-out: GI
Salmonella paratyphi [26] = test: Antibacterial activity against Salmonella enterica subsp. enterica serovar Paratyphi A after 24 hr by disk diffusion method; type: functional
Candida albicans [27] = test: Antifungal activity against Candida albicans after 24 hr by disk diffusion method; type: functional
Salmonella paratyphi [28] = test: Antibacterial activity against Salmonella enterica subsp. enterica serovar Paratyphi A after 18 hr by serial dilution method; type: functional
Staphylococcus aureus [29] = test: Antibacterial activity against Staphylococcus aureus after 24 hr by disk diffusion method; type: functional
[30] = test system: Staphylococcus epidermidis; test: Antibacterial activity against Staphylococcus albus after 18 hr by serial dilution method; type: functional
[31] = test system: Mycobacterium tuberculosis; test: Growth inhibition of Mycobacterium tuberculosis H37Rv at 1 ug/ml after 7 days by resazurin microplate assay; type: functional, organism-based
[32] = test system: Mycobacterium tuberculosis; test: Growth inhibition of Mycobacterium tuberculosis H37Rv at 100 ug/ml after 7 days by resazurin microplate assay; type: functional, organism-based
[33] = test system: Mycobacterium tuberculosis; test: Growth inhibition of Mycobacterium tuberculosis H37Rv at 10 ug/ml after 7 days by resazurin microplate assay; type: functional, organism-based
[34] = test system: Radical scavenging activity; test: Antioxidant activity assessed as DPPH radical scavenging activity after 30 min by spectrophotometric analysis; type: functional
[35] = Antioxidant activity assessed as reduction of ferric ion after 30 min by spectrophotometric analysis; type: functional

Compound: O=C(NCC(=O)N1c2ccccc2Sc2ccccc21)NN1C(=O)C(Cl)C1c1ccc(O)cc1 (stereo not drawn)
- diameter of the inhibition zone (DIZ) (Aspergillus niger [1]): 8 mm
- inhibition of growth at 25 µM (HeLa [2]): 19.1%
- MIC (Escherichia coli [3]): 250 µg/mL (≈ 505 µM)
- inhibition of growth at 12.5 µM (HeLa [4]): 5.04%
- diameter of the inhibition zone (DIZ) (Pseudomonas aeruginosa [5]): 18 mm
- MIC (Monascus purpureus [6]): 500 µg/mL (≈ 1010 µM)
- MIC (Trichophyton rubrum [7]): 250 µg/mL (≈ 505 µM)
- diameter of the inhibition zone (DIZ) (Bacillus subtilis [8]): 10 mm
- IC50 (HeLa [9]): 84.1 µM
- diameter of the inhibition zone (DIZ) (Micrococcus luteus [10]): 12 mm
- diameter of the inhibition zone (DIZ) (Escherichia coli [11]): 5 mm
- diameter of the inhibition zone (DIZ) (Vibrio cholerae [12]): 9 mm
- inhibition of growth at 50 µM (HeLa [13]): 37.4%
- diameter of the inhibition zone (DIZ) (Monascus purpureus [14]): 10 mm
- diameter of the inhibition zone (DIZ) (Trichophyton rubrum [15]): 8 mm
- MIC (Candida albicans [16]): 62.5 µg/mL (≈ 126 µM)
- diameter of the inhibition zone (DIZ) [17]: 13 mm
- MIC (Pseudomonas aeruginosa [18]): 62.5 µg/mL (≈ 126 µM)
- inhibition of growth at 6.25 µM (HeLa [19]): 0.123%
- MIC (Staphylococcus aureus [20]): 125 µg/mL (≈ 253 µM)
- MIC (Micrococcus luteus [21]): 62.5 µg/mL (≈ 126 µM)
- MIC (Bacillus subtilis [22]): 125 µg/mL (≈ 253 µM)
- MIC (Aspergillus niger [23]): 62.5 µg/mL (≈ 126 µM)
- MIC (Vibrio cholerae [24]): 125 µg/mL (≈ 253 µM)
- inhibition of growth at 100 µM (HeLa [25]): 53%
- diameter of the inhibition zone (DIZ) (Salmonella paratyphi [26]): 12 mm
- diameter of the inhibition zone (DIZ) (Candida albicans [27]): 13 mm
- MIC (Salmonella paratyphi [28]): 62.5 µg/mL (≈ 126 µM)
- diameter of the inhibition zone (DIZ) (Staphylococcus aureus [29]): 9 mm
- MIC [30]: 125 µg/mL (≈ 253 µM)

Compound: O=C(NCC(=O)N1c2ccccc2Sc2ccccc21)NN1C(=O)C(Cl)C1c1ccc([N+](=O)[O-])cc1 (stereo not drawn)
- diameter of the inhibition zone (DIZ) (Aspergillus niger [1]): 9 mm
- inhibition of growth at 25 µM (HeLa [2]): 56.5%
- MIC (Escherichia coli [3]): 62.5 µg/mL (≈ 119 µM)
- inhibition of growth at 12.5 µM (HeLa [4]): 41.8%
- MIC (Monascus purpureus [6]): 62.5 µg/mL (≈ 119 µM)
- MIC (Trichophyton rubrum [7]): 250 µg/mL (≈ 477 µM)
- growth inhibition (GI) [31]: inactive
- diameter of the inhibition zone (DIZ) (Bacillus subtilis [8]): 5 mm
- IC50 (HeLa [9]): 18.3 µM
- diameter of the inhibition zone (DIZ) (Micrococcus luteus [10]): 3 mm
- diameter of the inhibition zone (DIZ) (Escherichia coli [11]): 15 mm
- growth inhibition (GI) [32]: Active
- diameter of the inhibition zone (DIZ) (Vibrio cholerae [12]): 5 mm
- growth inhibition (GI) [33]: inactive
- inhibition of growth at 50 µM (HeLa [13]): 73.2%
- diameter of the inhibition zone (DIZ) (Monascus purpureus [14]): 13 mm
- diameter of the inhibition zone (DIZ) (Trichophyton rubrum [15]): 5 mm
- MIC (Candida albicans [16]): 62.5 µg/mL (≈ 119 µM)
- diameter of the inhibition zone (DIZ) [17]: 4 mm
- MIC (Pseudomonas aeruginosa [18]): 500 µg/mL (≈ 954 µM)
- inhibition of growth at 6.25 µM (HeLa [19]): 23.6%
- MIC (Staphylococcus aureus [20]): 250 µg/mL (≈ 477 µM)
- MIC (Micrococcus luteus [21]): 250 µg/mL (≈ 477 µM)
- MIC (Bacillus subtilis [22]): 250 µg/mL (≈ 477 µM)
- MIC (Aspergillus niger [23]): 500 µg/mL (≈ 954 µM)
- MIC (Vibrio cholerae [24]): 250 µg/mL (≈ 477 µM)
- inhibition of growth at 100 µM (HeLa [25]): 89.5%
- diameter of the inhibition zone (DIZ) (Salmonella paratyphi [26]): 7 mm
- diameter of the inhibition zone (DIZ) (Candida albicans [27]): 14 mm
- MIC (Salmonella paratyphi [28]): 125 µg/mL (≈ 239 µM)
- diameter of the inhibition zone (DIZ) (Staphylococcus aureus [29]): 4 mm
- MIC [30]: 250 µg/mL (≈ 477 µM)

Compound: O=C(NCC(=O)N1c2ccccc2Sc2ccccc21)NN1C(=O)C(Cl)C1c1ccc(Cl)cc1 (stereo not drawn)
- diameter of the inhibition zone (DIZ) (Aspergillus niger [1]): 12 mm
- inhibition of growth at 25 µM (HeLa [2]): 15.9%
- MIC (Escherichia coli [3]): 62.5 µg/mL (≈ 122 µM)
- inhibition of growth at 12.5 µM (HeLa [4]): 5.9%
- diameter of the inhibition zone (DIZ) (Pseudomonas aeruginosa [5]): 5 mm
- MIC (Monascus purpureus [6]): 62.5 µg/mL (≈ 122 µM)
- MIC (Trichophyton rubrum [7]): 250 µg/mL (≈ 487 µM)
- diameter of the inhibition zone (DIZ) (Bacillus subtilis [8]): 7 mm
- IC50 (HeLa [9]): 111 µM
- diameter of the inhibition zone (DIZ) (Micrococcus luteus [10]): 5 mm
- diameter of the inhibition zone (DIZ) (Escherichia coli [11]): 19 mm
- diameter of the inhibition zone (DIZ) (Vibrio cholerae [12]): 18 mm
- inhibition of growth at 50 µM (HeLa [13]): 33.6%
- diameter of the inhibition zone (DIZ) (Monascus purpureus [14]): 12 mm
- diameter of the inhibition zone (DIZ) (Trichophyton rubrum [15]): 6 mm
- MIC (Candida albicans [16]): 125 µg/mL (≈ 243 µM)
- diameter of the inhibition zone (DIZ) [17]: 5 mm
- MIC (Pseudomonas aeruginosa [18]): 250 µg/mL (≈ 487 µM)
- inhibition of growth at 6.25 µM (HeLa [19]): 0.123%
- MIC (Staphylococcus aureus [20]): 62.5 µg/mL (≈ 122 µM)
- MIC (Micrococcus luteus [21]): 250 µg/mL (≈ 487 µM)
- MIC (Bacillus subtilis [22]): 125 µg/mL (≈ 243 µM)
- MIC (Aspergillus niger [23]): 125 µg/mL (≈ 243 µM)
- MIC (Vibrio cholerae [24]): 62.5 µg/mL (≈ 122 µM)
- inhibition of growth at 100 µM (HeLa [25]): 44.3%
- EC50 [34]: 56 µg/mL (≈ 109 µM)
- diameter of the inhibition zone (DIZ) (Salmonella paratyphi [26]): 5 mm
- diameter of the inhibition zone (DIZ) (Candida albicans [27]): 7 mm
- MIC (Salmonella paratyphi [28]): 250 µg/mL (≈ 487 µM)
- Activity [35]: Active
- diameter of the inhibition zone (DIZ) (Staphylococcus aureus [29]): 4 mm
- MIC [30]: 250 µg/mL (≈ 487 µM)

Compound: CN(C)c1ccc(C2C(Cl)C(=O)N2NC(=O)NCC(=O)N2c3ccccc3Sc3ccccc32)cc1 (stereo not drawn)
- diameter of the inhibition zone (DIZ) (Aspergillus niger [1]): 8 mm
- MIC (Escherichia coli [3]): 250 µg/mL (≈ 479 µM)
- diameter of the inhibition zone (DIZ) (Pseudomonas aeruginosa [5]): 12 mm
- MIC (Monascus purpureus [6]): 250 µg/mL (≈ 479 µM)
- MIC (Trichophyton rubrum [7]): 250 µg/mL (≈ 479 µM)
- growth inhibition (GI) [31]: inactive
- diameter of the inhibition zone (DIZ) (Bacillus subtilis [8]): 8 mm
- diameter of the inhibition zone (DIZ) (Micrococcus luteus [10]): 5 mm
- diameter of the inhibition zone (DIZ) (Escherichia coli [11]): 7 mm
- growth inhibition (GI) [32]: Active
- diameter of the inhibition zone (DIZ) (Vibrio cholerae [12]): 8 mm
- growth inhibition (GI) [33]: inactive
- diameter of the inhibition zone (DIZ) (Monascus purpureus [14]): 7 mm
- diameter of the inhibition zone (DIZ) (Trichophyton rubrum [15]): 7 mm
- MIC (Candida albicans [16]): 250 µg/mL (≈ 479 µM)
- diameter of the inhibition zone (DIZ) [17]: 8 mm
- MIC (Pseudomonas aeruginosa [18]): 62.5 µg/mL (≈ 120 µM)
- MIC (Staphylococcus aureus [20]): 125 µg/mL (≈ 239 µM)
- MIC (Micrococcus luteus [21]): 250 µg/mL (≈ 479 µM)
- MIC (Bacillus subtilis [22]): 125 µg/mL (≈ 239 µM)
- MIC (Aspergillus niger [23]): 125 µg/mL (≈ 239 µM)
- MIC (Vibrio cholerae [24]): 125 µg/mL (≈ 239 µM)
- EC50 [34]: 55 µg/mL (≈ 105 µM)
- diameter of the inhibition zone (DIZ) (Salmonella paratyphi [26]): 6 mm
- diameter of the inhibition zone (DIZ) (Candida albicans [27]): 7 mm
- MIC (Salmonella paratyphi [28]): 250 µg/mL (≈ 479 µM)
- Activity [35]: Active
- diameter of the inhibition zone (DIZ) (Staphylococcus aureus [29]): 8 mm
- MIC [30]: 125 µg/mL (≈ 239 µM)
